Tests used:
[1] = tested on: plasma from donors treated with warfarin; experiment: Thrombelastography/CLSM in plasma of warfarin-treated donors with or without tPA; type: biochemical, human; settings: warfarin-treated subjects, tPA 100 IU/mL; 100 μM CORM-2
Description: Pooled normal plasma (George King Bio-Medical, Overland Park, Kans.) anticoagulated with sodium citrate was utilized for experimentation. […] Plasma anticoagulated with sodium citrate procured from anonymous donors treated with warfarin was also obtained from the same vendor.
Plasma sample composition of experiments without tPA addition. The final volume for all subsequently described plasma sample mixtures was 359.6 μL. Sample composition consisted of 326 μL of plasma, 10 μL of tissue factor reagent (0.1% final concentration in dH2O; Instrumentation Laboratory, Lexington, Mass.), 3.6 μL of dimethyl sulfoxide (DMSO) or DMSO with CORM-2 (100 μM final concentration; Sigma-Aldrich, St. Louis, Mo.), and 20 μL of 200 mM CaCl2. Tissue factor stock was kept on ice prior to use and was remade every two hours. […] DMSO was added to dry CORM-2 just prior to placement into the plasma mixture. Six replicate experiments were performed with pooled normal plasma with or without CORM-2 added, whereas plasma obtained from subjects treated with warfarin underwent singlicate experiments with or without CORM-2 exposure.
Plasma sample composition of experiments with tPA addition. […]
Clot Lifespan Model Analyses. […] Time to maximum rate of lysis (TMRL): This is the time interval (sec) measured from the time of maximum strength to the time when the velocity of clot disintegration is maximal. […]

[2] = pure (43.5 mg/mL) or up to three-fold diluted fibrinogen solution
Description: Exposure of purified fibrinogen to CORM-2. Experiments with purified fibrinogen pre-exposure to CORM-2 were to be performed in a similar fashion as that described with prothrombin. […] Therefore, a concentration-response relationship between various fibrinogen concentrations with or without the addition of CORM-2 was generated as outlined subsequently.

[3] = tested on: Factor XIII (FXIII) deficient plasma; experiment: Thrombelastographic coagulation kinetics, Celite-activated FXIII deficient plasma; type: biochemical, human
Description: Pooled normal plasma (George King Bio-Medical, Overland Park, Kans.) anticoagulated with sodium citrate was utilized for experimentation. […] Factor XIII (FXIII) deficient plasma anticoagulated with sodium citrate was also obtained from George King Bio-Medical (Overland Park, Kans.).
Plasma Sample Composition. The final volume for all subsequently described plasma sample mixtures was 359.4 μL. […] (Motterlini et al., Expert Opin Investig Drugs, 14:1305-1318 (2005), which is incorporated by reference herein in its entirety).
Clot Lifespan Model Analyses. Plasma sample mixtures were placed in a disposable cup in a computer-controlled THROMBELASTOGRAPH® hemostasis system (Model 5000, Haemoscope Corp., Niles, Ill.), with addition of CaCl2 as the last step to initiate clotting. Data were collected for 15 minutes, as normal plasma completes thrombus formation within this interval in this system (Dong et al., Eur J Pharmacol 590:99-104 (2008)).
Statistical Analyses. Data are presented as mean±SD. All conditions described were represented with n=8 experiments, as n=6-8 typically provides statistical power>0.8 in similar analyses (Nielsen et al., Acta Anaesthesiol Scand 49:222-231 (2005) and Nielsen et al., Blood Coagul Fibrinolysis 17:75-81 (2006)). Analyses of the effects of CORM-2 and iCORM-2 on thrombelastographic variables were conducted using one way analysis of variance with the Holm-Sidak test used for post hoc comparisons. Graphical representation of the data was generated with commercially available software (Origin 7.5, OriginLab Corp., Northampton, Mass.). A P value of ≦0.05 was considered significant.

[4] = 100 μM, Celite-activated FXIII deficient plasma, mean ± SD, n=8

## [C-]#[O+].[C-]#[O+].[C-]#[O+].[C-]#[O+].[C-]#[O+].[C-]#[O+].[Cl][Ru][Cl].[Cl][Ru][Cl] [CORM-2, tricarbonyldichlororuthenium (II) dimer]
[1]
  effect on clot lifespan: The clot lifespan was increased in all subjects
  increase in MRL, % of baseline values: 11-181%
[2]
  solubility of CORM-2 in DMSO added to purified fibrinogen solution: not soluble
[3]; [4]
  MRTG (maximum rate of thrombus generation): 9.1 ± 1.2 dynes/cm^2/sec
  TMRTG (time to maximum rate of thrombus generation): 296 ± 13 s
  TTG (total thrombus generation): 163 ± 21 dynes/cm^2
[3]; addition to FXIII-deficient plasma
  equivalent replacement of FXIII activity with regard to enhancement of coagulation kinetics: 100%

Source: US8697747B2, “Enhancing coagulation or reducing fibrinolysis” (THe UAB Research Foundation, priority 2009, dated 2014)
